# According to ChEMBL document CHEMBL1127140, “Inhibition of human leukocyte elastase. 7. Inhibition by 6-substituted penicillin amides” (Bioorg Med Chem Lett, 1993):
# What was measured:
# [1] = Tested for chemical stability of the compound; assay type: physicochemical
# [2] = molecular target: T1, Neutrophil elastase (Homo sapiens) (UniProt P08246)
# T1 sequence (whole entry): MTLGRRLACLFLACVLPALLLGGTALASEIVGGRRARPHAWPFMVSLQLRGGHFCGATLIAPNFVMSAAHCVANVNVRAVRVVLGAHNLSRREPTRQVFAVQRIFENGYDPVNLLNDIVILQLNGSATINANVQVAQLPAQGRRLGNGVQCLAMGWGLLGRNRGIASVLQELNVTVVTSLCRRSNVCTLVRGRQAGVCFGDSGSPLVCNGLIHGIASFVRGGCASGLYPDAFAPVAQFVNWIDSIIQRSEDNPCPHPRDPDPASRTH
# Description: Inhibition of Elastase using Suc-Ala-Ala-Pro-Ala-pNA as substrate, activity expressed as Kobs/[I] (second order rate constant)
# Neutrophil elastase = molecular target: T2, Neutrophil elastase (Homo sapiens, UniProt P08246); test: Tested in vitro for its inhibitory effect against Elastase using Suc-Ala--Ala-Pro-Ala-pNA as substrate
# T2 sequence (P08246 whole entry): T1 sequence (whole entry)
# Cricetinae gen. sp. [3] = test: Tested in vivo for inhibition of hamster lung hemorrhage after intratracheal administration at 2 hr prior to challenge with HLE (human leukocyte elastase); assay type: functional, Cricetulus griseus
# Cricetinae gen. sp. [4] = test: Tested in vivo for inhibition of hamster lung hemorrhage after intratracheal administration at 3h prior to challenge with HLE(human leukocyte elastase); assay type: functional, Cricetulus griseus
# Cricetinae gen. sp. [5] = test: Tested in vivo for inhibition of hamster lung hemorrhage after intratracheal administration at 1 hr prior to challenge with HLE (human leukocyte elastase); assay type: functional, Cricetulus griseus
# Cricetinae gen. sp. [6] = test: Tested in vivo for inhibition of hamster lung hemorrhage after intratracheal administration at 3h prior to challenge with HLE (human leukocyte elastase); assay type: functional, Cricetulus griseus
# [7] = molecular target: T1, Neutrophil elastase (Homo sapiens); test: Tested in vitro for its inhibitory effect against Human leukocyte elastase using Suc-Ala--Ala-Pro-Ala-pNA as substrate, activity expressed as Kobs/[I] (second order rate constant)
half-life [1] [h],K obs / 1 [2] [M⁻¹ s⁻¹],Ki (Neutrophil elastase) [µM],Compound,other results
8.2,60,–,CN(Cc1ccc(C(=O)O)cc1)C(=O)[C@@H]1N2C(=O)[C@H](NC(=O)C(F)(F)F)[C@H]2[S+]([O-])C1(C)C (stereo partly drawn),–
–,–,22,CC1(C)[C@H](C(=O)N2CCC[C@@H]2C(=O)O)N2C(=O)[C@@H](NC(=O)C(F)(F)F)[C@H]2S1(=O)=O,–
4.5,275,–,CN(Cc1ccc(C(=O)O)cc1)C(=O)[C@@H]1N2C(=O)[C@@H](NC(=O)C(F)(F)F)[C@H]2S(=O)(=O)C1(C)C,–
–,26,–,CC1(C)[C@H](C(=O)N2CCC[C@@H]2C(=O)O)N2C(=O)[C@H](NC(=O)C(F)(F)F)[C@H]2S1(=O)=O,–
–,–,53,CO[C@H]1C(=O)N2[C@@H](C(=O)N(C)CC(=O)O)C(C)(C)S(=O)(=O)[C@H]12,–
–,–,1.3,CCO[C@H]1C(=O)N2[C@@H](C(=O)OCc3ccc(C(=O)O)cc3)C(C)(C)S(=O)(=O)[C@H]12,–
4.8,–,14,CN(CC(=O)O)C(=O)[C@@H]1N2C(=O)[C@H](NC(=O)C(F)(F)F)[C@H]2S(=O)(=O)C1(C)C,–
1.4,–,1.5,CC1(C)[C@H](C(=O)OCc2ccc(C(=O)O)cc2)N2C(=O)[C@H](NC(=O)C(F)(F)F)[C@H]2[S+]1[O-] (stereo partly drawn),–
1.1,7100,–,CC1(C)[C@H](C(=O)OCc2ccc(C(=O)O)cc2)N2C(=O)[C@@H](NC(=O)C(F)(F)F)[C@H]2S1(=O)=O,–
–,–,50,CN(CC(=O)O)C(=O)[C@@H]1N2C(=O)[C@@H](NC(=O)C(F)(F)F)[C@H]2S(=O)(=O)C1(C)C,–
4.2,5400,–,CN(Cc1ccc(C(=O)O)cc1)C(=O)[C@@H]1N2C(=O)[C@H](NC(=O)C(F)(F)F)[C@H]2S(=O)(=O)C1(C)C,–
–,3800,–,CO[C@H]1C(=O)N2C(C(=O)N3CCC[C@H]3C(=O)O)=C(COC(C)=O)CS(=O)(=O)[C@H]12,Inhibition (Cricetinae gen. sp. [3]): 97%; Inhibition (Cricetinae gen. sp. [4]): 78%; Inhibition (Cricetinae gen. sp. [5]): 99%
–,–,–,CO[C@H]1C(=O)N2C(C(=O)N(C)CC(=O)O)=C(COC(C)=O)CS(=O)(=O)[C@H]12,Inhibition (Cricetinae gen. sp. [3]): 80%; Inhibition (Cricetinae gen. sp. [5]): 97%; Inhibition (Cricetinae gen. sp. [6]): 54%
1.1,89000,–,CC1(C)[C@H](C(=O)OCc2ccc(C(=O)O)cc2)N2C(=O)[C@H](NC(=O)C(F)(F)F)[C@H]2S1(=O)=O,–
5.3,4900,–,CC1(C)[C@H](C(=O)OCc2ccc(C(=O)O)cc2)N2C(=O)[C@H](NC(=O)C(F)(F)F)[C@@H]2[S+]1[O-] (stereo partly drawn),–
8.6,1100,–,CN(Cc1ccc(C(=O)O)cc1)C(=O)[C@@H]1N2C(=O)[C@H](NC(=O)C(F)(F)F)[C@@H]2[S+]([O-])C1(C)C (stereo partly drawn),–
< 1,–,–,CO[C@H]1C(=O)N2[C@@H](C(=O)OCc3ccc(C(=O)O)cc3)C(C)(C)S(=O)(=O)[C@H]12,K obs / 1 [7]: 5600 M⁻¹ s⁻¹
–,5700,–,CN(C(=O)C(F)(F)F)[C@H]1C(=O)N2[C@@H](C(=O)OCc3ccc(C(=O)O)cc3)C(C)(C)S(=O)(=O)[C@H]12,–
